# Entries after “also recorded” stand apart in the source; their conditions may differ.
# Columns and labels:
# 786-O and RCC4 cells = assay: Cell-cycle analysis by flow cytometry, RCC cells; format: cell-based
# Description: To confirm the cytotoxic effect observed in the glioblastoma cell lines, the inventors assessed ISP I's effect on renal cell carcinoma (RCC) cell lines (ACHN, UM-RC-2, RCC4 and 786-0). Cell viability was assessed similarly via CKK8 analysis. […] (FIG. 4C, D).
# (§1) For monitoring cell-cycle arrest of ISP I-treated cells, Click-iT EdU Flow Cytometry Assay Kits were used, a product of ThermoFisher Scientific. Cells were co-cultured with EdU at a concentration of 10 μM for 1 hour. After fixation and permeabilization, EdU-positive cells were labeled with Alexa Fluor 647 fluorescein. DAPI also was used for measuring total DNA content to identify differences in cell cycle phases. Data were collected by means of a BD LSRFortessa flow cytometer using FlowJo software. Cells that are positive with EdU and DAPI were in S-Phase of the cell cycle.
# SELH = molecular target: T1, SELH (Homo sapiens, UniProt Q8IZQ5); assay: Cellular thermal shift assay (CETSA) / thermo-stability assay; format: binding; set-up: endogenous in cells; host or cells: LN229, 786-O; conditions: vs DMSO
# T1 sequence (Q8IZQ5 1-122): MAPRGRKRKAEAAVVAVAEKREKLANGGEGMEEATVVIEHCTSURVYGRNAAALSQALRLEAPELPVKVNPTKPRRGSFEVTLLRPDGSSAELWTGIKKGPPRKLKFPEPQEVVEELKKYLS
# Source text: Next, the inventors used a thermo-stability assay to confirm SELH was targeted by ISP I in LN229 and 786-O cell lines. The principle of the assay is based on altered protein thermal stabilization/destabilization due to ligand binding in living cells. […] (FIG. 5B and FIG. 6A). To verify further the specificity of ISP I's targeting of SELH, the inventors designed a surface plasmon resonance assay to assess the interaction of ISP I with SELH synthesized in bacteria.
# CETSA experiments were performed to determine the ISP I-related ligand induced shifts. Intact and live cells in a 10-cm dish were harvested, washed and resuspended in PBS with protease inhibitor cocktail. Protein of the cells was extracted by freeze-thaw more than three times, using liquid nitrogen. The supernatant was centrifuged at 20, 000 g for 20 min at 4° C. Then the samples were aliquoted to several groups incubated with different concentrations of ISP I for 1 hour. After that, samples were aliquoted into PCR tubes and thereafter heated at gradient temperature ranging from 40° C. to 80° C. for 3 min. Then the samples were centrifuged again and resolved using 4-12% SDS-PAGE followed by western blot experiments.
# [1] = tested on: other proteins (antioxidant components); assay: Surface plasmon resonance (SPR) assay, other antioxidant components; format: binding
# LN229-luc tumors = assay: Intracranial LN229-luc glioblastoma xenograft mouse model; format: in vivo, NSG mice
# Source text: The inventors first assessed ISP I's anti-tumor activity in an intracranial mouse model (FIG. 11A). NSG mice were inoculated with 1×10^5 LN229-luc cells in the right-frontal cortex. After 7 days, intracranial tumor growth was confirmed via noninvasive in vivo bioluminescence imaging and mice were randomized into ISP I or DMSO (control) treatment groups.
# Mice experiments were approved by the National Institute of Neurological Disorders and Stroke (NINDS) and National Cancer Institute (NCI) Animal Use and Care Committees. For intracranial xenografts establishment, NOD-Prkdc^scidII2rg^tmiWjl (NSG) mice (6-8 weeks old from the NCI-Frederick animal facility) were inoculated intracranially with 100,000 LN229-luc cells suspended in 2 μL Hank's Balanced Salt Solution (HBSS), a product of Crystalgen (Commack, N.Y. USA). After one week, luciferin signals were detected to confirm the survival of tumor cells in mice. The mice were assigned to the indicated groups according to the signal intensity, in order to keep the baseline balanced. ISP I was injected intraperitoneally daily at a dose of 66 mg/kg body weight for 24 days. The mice in control group were injected with the same volume of corn oil or saline. The viability of tumors was monitored every four days. […]
# IOMM tumors = assay: IOMM meningioma subcutaneous xenograft mouse model; format: in vivo, Nude mice; conditions: 35 mg/kg i.p. daily; 18 days after treatment
# Description: For subcutaneous xenografts, NSG mice (6-8 weeks old) from the NCI-Frederick animal facility and Jackson Lab (Bar Harbor, Me. USA) were injected with 5×10^6 to 1×10^7 cells subcutaneously in the flank. One week later, the tumor-bearing mice were randomly assigned to different groups and made the tumor volume baseline equivalent and treated with normal saline or Zenomycin (35 mg/kg) everyday intraperitoneally. Tumors were measured using a caliper, and volume was calculated.
# LN229 and U251 cells = assay: Cell-cycle analysis by flow cytometry (EdU and DAPI), glioblastoma cells; format: cell-based
# Description: To assess the cytotoxicity of ISPs I, II and III, five glioblastoma cell lines, T98G, U118, A172, LN229 and U251, were treated with serial doses of each ISP, respectively, for 48 hours. Cell viability of these cell lines were evaluated by CCK8 assay, and the 50% inhibitory concentration (IC50) was calculated (FIG. 2A, B and FIG. 3). […] Cell distribution in each phase of the cell cycle was assessed in LN229 and U251 cells by flow cytometry, followed by EdU and DAPI staining.
# as §1
smiles,measurement,setting,value
"COC1C(O)CC(=O)OC(C)CC=CC=CC(OC2CCC(N(C)C)C(C)O2)C(C)CC(CC=O)C1OC1OC(C)C(OC2CC(C)(O)C(OC(=O)CC(C)C)C(C)O2)C(N(C)C)C1O (centres unmarked) [ISP I, 4″-isolvalerylspiramycin I]",cell distribution in cell-cycle phases,786-O and RCC4 cells,clear G0/G1 arrest; also recorded: induced cell-cycle arrest in the G0/G1 phase
same,thermal stabilisation of SELH (western blot),SELH; 786-O cells,ISP I-protected SELH was observed along with a rise in temperature; also recorded: protective effect of ISP I on SELH was present over a range of increasing temperatures
same,thermal stabilisation of SELH (western blot),SELH; LN229 cells,ISP I-protected SELH was observed along with the rise of temperature; also recorded: protective effect of ISP I on SELH was present over a range of increasing temperatures
same,binding to other proteins (SPR),[1],does not bind with the other proteins
same,tumor growth / burden (bioluminescence imaging),LN229-luc tumors; 66 mg/kg body weight i.p. every day,reduced LN229-luc tumor burden compared with the untreated group; also recorded: significantly reduced tumor growth
same,response in tumor-derived bioluminescence images,"LN229-luc tumors; three mice, day 24, 66 mg/kg i.p. daily",complete response
same,"tumor size, weight and burden",IOMM tumors,reduced IOMM tumor burden; also recorded: significantly reduced tumor size and weight
same,cell distribution in cell-cycle phases,LN229 and U251 cells,G0/G1 arrest; also recorded: dose-dependent increase in the G0/G1 phase and a decrease in the S phase

# From patent publication US11351185B2, “Use of isovalerylspiramycins as anti-cancer agents to inhibit metastasis” (priority 2020, dated 2022)
